Our source for the EC50 values is ChEMBL document CHEMBL2163290, “Substituted pyrazolones require N2 hydrogen bond donating ability to protect against cytotoxicity from protein aggregation of mutant superoxide dismutase 1” (Bioorg Med Chem Lett, 2012).

The subject of the assay is PC-12. Kind of assay: Neuroprotective activity in rat PC12 cells expressing SOD1 G93A mutant assessed as increase in cell viability after 48 hrs by CalceinAM-based fluorescence assay. It counts as functional. Particulars: PC-12, 48 h.
What is called EC50 is the midpoint of the concentration-response curve. As to `Cn1[nH]c(COc2cc(Cl)cc(Cl)c2)cc1=O`, the EC50 is 0.67 µM.
Consider `COc1ccc(Cn2[nH]c(COc3cc(Cl)cc(Cl)c3)cc2=O)cc1`, for which the EC50 is greater than 32 µM.
For `Cc1nnsc1C(=O)n1[nH]c(COc2cc(Cl)cc(Cl)c2)cc1=O`, the EC50 is 1.71 µM.
The same measure for `O=C(c1cccnc1)n1[nH]c(COc2cc(Cl)cc(Cl)c2)cc1=O`: 1.32 µM; for `O=C(c1cccs1)n1[nH]c(COc2cc(Cl)cc(Cl)c2)cc1=O`: 0.31 µM; for `CC(=O)n1[nH]c(COc2cc(Cl)cc(Cl)c2)cc1=O`: 0.27 µM.
The same measure for `O=C1C=C(COc2cc(Cl)cc(Cl)c2)CN1Cc1ccccc1`: greater than 32 µM; for `O=c1cc(COc2cc(Cl)cc(Cl)c2)[nH]n1-c1nc(-c2ccccc2)cs1`: 1 µM; for `O=c1cc(COc2cc(Cl)cc(Cl)c2)[nH]n1CCCO`: 0.34 µM.
In the case of `O=c1cc(COc2cc(Cl)cc(Cl)c2)[nH]n1-c1ccccc1` it was 1.03 µM; in that of `O=C1N[C@H]2[C@H](CS[C@H]2CCCCC(=O)n2[nH]c(COc3cc(Cl)cc(Cl)c3)cc2=O)N1`, 0.56 µM; in that of `O=c1cc(COc2cc(Cl)cc(Cl)c2)[nH]n1Cc1ccccc1`, 0.13 µM.
As to `O=c1cc(COc2cc(Cl)cc(Cl)c2)[nH][nH]1`, the EC50 is 0.067 µM.
In the case of `O=C(CCCC[C@@H]1SC[C@@H]2NC(=O)N[C@@H]21)NCCOCCOCCOCCOCCC(=O)n1[nH]c(COc2cc(Cl)cc(Cl)c2)cc1=O` it was 0.67 µM.
The same measure for `O=C1CC(COc2cc(Cl)cc(Cl)c2)CN1Cc1ccccc1` (stereo not given): greater than 32 µM; for `O=c1cc(COc2cc(Cl)cc(Cl)c2)[nH]n1-c1ccc(Cl)cc1`: 1.73 µM.
The same measure for `Cn1c(COc2cc(Cl)cc(Cl)c2)cc(=O)n1C`: greater than 32 µM; for `O=c1cc(COc2cc(Cl)cc(Cl)c2)[nH]n1-c1c(Cl)cc(C(F)(F)F)cc1Cl`: greater than 32 µM; for `O=c1cc(COc2cc(Cl)cc(Cl)c2)[nH]n1Cc1cccc(O)c1`: 0.36 µM.
Consider `Nc1ccc(C(=O)n2[nH]c(COc3cc(Cl)cc(Cl)c3)cc2=O)cc1`, for which the concentration giving a half-maximal response (EC50) was 0.93 µM.
In the case of `O=Cn1[nH]c(COc2cc(Cl)cc(Cl)c2)cc1=O` it was 0.49 µM; in that of `O=C(c1ccc(N=C=S)cc1)n1[nH]c(COc2cc(Cl)cc(Cl)c2)cc1=O`, 0.33 µM; in that of `O=c1cc(COc2cc(Cl)cc(Cl)c2)[nH]n1-c1ccc([N+](=O)[O-])cc1[N+](=O)[O-]`, greater than 32 µM.
In the case of `O=c1cc(COc2cc(Cl)cc(Cl)c2)[nH]n1CCO` it was greater than 32 µM; in that of `N#CCC(=O)n1[nH]c(COc2cc(Cl)cc(Cl)c2)cc1=O`, 0.42 µM.
